The values that follow come from patent publication US10815274B2, “Immunogenic WT-1 peptides and methods of use thereof” (Memorial Sloan Kettering Cancer Center, priority 2012, dated 2020).

One data set relates to WT1+ leukemia. Briefly: Cr51 release assay, cytotoxic CTL response vs WT1+ leukemia expressing restricting HLA allele. The format is cell-based, human. The note with it: 50:1 E:T.
The next data set relates to PHA blasts. Briefly: Cr51 release assay, cytotoxic CTL response vs PHA blasts from the same leukemic patient. The note with it: 50:1 E:T, PHA blasts from same patients as the leukemia. The format is cell-based, human.
Data set [1] concerns WT1- allo APC with restricting HLA allele. Briefly: Cr51 release assay, cytotoxic CTL response vs unloaded allogeneic APC sharing restricting HLA allele. The data set is classed as cell-based, human. The note with it: 50:1 E:T.
In the next data set the test system is WT1- leukemia. Briefly: Cr51 release assay, cytotoxic CTL response vs WT1- leukemia. The data set is classed as cell-based, human. The note with it: 50:1 E:T.
Data set [2] relates to WT1 peptide loaded autologous APC. Briefly: Cr51 release assay, cytotoxic CTL response vs peptide loaded autologous APC. The format is cell-based, human. The following applies: 50:1 E:T.
Data set [3] concerns WT1+ allo APC with restricting HLA allele loaded with WT1 peptide. Briefly: Cr51 release assay, cytotoxic CTL response vs peptide loaded allogeneic APC sharing restricting HLA allele (HLA restriction). The following applies: 50:1 E:T.
A further data set has as its system WT1- autologous APC. Briefly: Cr51 release assay, cytotoxic CTL response vs unmodified autologous APC. The data set is classed as cell-based, human. The note with it: 50:1 E:T.

Structures are written as SMILES. Where a SMILES comes first, the peptide text is derived from it.

Regarding `C[C@@H](O)[C@H](N)C(=O)N[C@@H](Cc1c[nH]cn1)C(=O)N[C@@H](CO)C(=O)N1CCC[C@H]1C(=O)N[C@H](C(=O)N[C@@H](Cc1c[nH]cn1)C(=O)N1CCC[C@H]1C(=O)N1CCC[C@H]1C(=O)N[C@@H](CCCNC(=N)N)C(=O)O)[C@@H](C)O` [SEQ ID NO: 146] (H-THSPTHPPR-OH; N-terminus and C-terminus assumed), the “Cytotoxic CTL response, % vs WT1+ Leukemia” value in the data set on WT1+ leukemia (HLA allele A0201) was determined as 38%; in the data set with WT1+ leukemia (HLA allele B4001), 65%. The “Cytotoxic CTL response, % vs WT1+ leukemia” value was 38% with WT1+ leukemia (HLA allele A0201) and 65% in the data set with WT1+ leukemia (HLA allele B4001). The “Cytotoxic CTL response, % vs PHA blasts” value with PHA blasts (HLA allele A0201) was 3%; in the data set with PHA blasts (HLA allele B4001), 5%. For the same molecule, the “Cytotoxic CTL response, % vs WT1- allo APC with restricting HLA allele” value in data set [1] (HLA allele A0201) was 1%; in data set [1] (HLA allele B4001), 0%. The figures for the “Cytotoxic CTL response, % vs WT1- leukemia” value in the data set with WT1- leukemia (HLA allele A0201) and in the data set on WT1- leukemia (HLA allele B4001) were 0% and 3%, respectively. In addition, the results for the “Cytotoxic CTL response, % vs WT1 peptide loaded autologous APC” value in data set [2] (HLA allele A0201) and in data set [2] (HLA allele B4001) were 50% and 45%, respectively. For the same molecule, the “Cytotoxic CTL response, % vs WT1+ allo APC with restricting HLA allele loaded with WT1 peptide” value (from here on “Cytotoxic CTL response, % … with WT1 peptide”) in data set [3] (HLA allele A0201) was 21%; in data set [3] (HLA allele B4001) it was 31%. The figures for the “Cytotoxic CTL response, % vs WT1- autologous APC” value in the data set on WT1- autologous APC (HLA allele A0201) and in the data set with WT1- autologous APC (HLA allele B4001) were 2% and 0%, respectively.
Take `CC(C)C[C@H](NC(=O)[C@H](CO)NC(=O)CNC(=O)[C@H](Cc1ccc(O)cc1)NC(=O)[C@H](C)NC(=O)[C@@H](N)CO)C(=O)NCC(=O)NCC(=O)N1CCC[C@H]1C(=O)O` [SEQ ID NO: 157] (H-SAYGSLGGP-OH; N-terminus and C-terminus assumed): the figures for the “Cytotoxic CTL response, % vs WT1+ leukemia” value with WT1+ leukemia (HLA allele A0201) and in the data set with WT1+ leukemia (HLA allele B4001) were 0% and 68%, respectively. Besides, the “Cytotoxic CTL response, % vs WT1+ Leukemia” value in the data set with WT1+ leukemia (HLA allele B4001) worked out at 68%. Moreover, the “Cytotoxic CTL response, % vs PHA blasts” value in the data set with PHA blasts (HLA allele B4001) came to 3%. Moreover, the entries for the “Cytotoxic CTL response, % vs WT1- allo APC with restricting HLA allele” value in data set [1] (HLA allele A0201) and in data set [1] (HLA allele B4001) were 5% and 8%, respectively. For the same molecule, the results for the “Cytotoxic CTL response, % vs WT1- leukemia” value in the data set on WT1- leukemia (HLA allele A0201) and in the data set with WT1- leukemia (HLA allele B4001) were 0% and 3%, respectively. For the same molecule, the results for the “Cytotoxic CTL response, % vs WT1 peptide loaded autologous APC” value in data set [2] (HLA allele A0201) and in data set [2] (HLA allele B4001) were 51% and 41%, respectively. The “Cytotoxic CTL response, % … with WT1 peptide” value in data set [3] (HLA allele A0201) was 31%; in data set [3] (HLA allele B4001), 24%. Besides, the “Cytotoxic CTL response, % vs WT1- autologous APC” value in the data set with WT1- autologous APC (HLA allele A0201) and in the data set on WT1- autologous APC (HLA allele B4001) was 2% throughout.
Turning to `CC(C)C[C@H](NC(=O)[C@H](C)NC(=O)CNC(=O)[C@@H]1CCCN1C(=O)[C@H](Cc1c[nH]cn1)NC(=O)[C@@H]1CCCN1C(=O)[C@H](CCCNC(=N)N)NC(=O)[C@H](CCC(N)=O)NC(=O)[C@@H](N)CCCNC(=N)N)C(=O)O` [SEQ ID NO: 142, RQRPHPGAL] (H-RQRPHPGAL-OH; N-terminus and C-terminus assumed), in the data set on WT1+ leukemia (HLA allele B0702), the “Cytotoxic CTL response, % vs WT1+ Leukemia” value is 67% and the “Cytotoxic CTL response, % vs WT1+ leukemia” value was 67%. For the same molecule, the “Cytotoxic CTL response, % vs PHA blasts” value in the data set on PHA blasts (HLA allele B0702) turned out to be 2%. The “Cytotoxic CTL response, % vs WT1- allo APC with restricting HLA allele” value in data set [1] (HLA allele B0702) amounted to 1%. Besides, in the data set on WT1- leukemia (HLA allele B0702), the “Cytotoxic CTL response, % vs WT1- leukemia” value is reported as 1%. Besides, the “Cytotoxic CTL response, % vs WT1 peptide loaded autologous APC” value in data set [2] (HLA allele B0702) was determined as 27%. In addition, in data set [3] (HLA allele B0702), the “Cytotoxic CTL response, % … with WT1 peptide” value was found to be 53%. Besides, the “Cytotoxic CTL response, % vs WT1- autologous APC” value with WT1- autologous APC (HLA allele B0702) worked out at 0%.
